Results published in the supplement of paper PMC9663587.

Tests used:
LEE011/Ribociclib [1] = compound: T1, CN(C)C(=O)c1cc2cnc(Nc3ccc(N4CCNCC4)cn3)nc2n1C1CCCC1 [LEE011/Ribociclib]; assay: increase in dead-cell fraction, 72 h; higher = more death;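 further: breast cancer cell lines in 384-well plates, stained with Hoechst plus LIVE/DEAD far red dye and imaged, cells above an LDR intensity threshold counted dead, Hoechst-negative corpses included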
Flavopiridol [2] = compound: T2, CN1CC[C@H](c2c(O)cc(O)c3c(=O)cc(-c4ccccc4Cl)oc23)[C@H](O)C1 [Flavopiridol]; assay: as above
[3] = compound: CC(=O)c1c(C)c2cnc(Nc3ccc(N4CCNCC4)cn3)nc2n(C2CCCC2)c1=O; assay: as above
[4] = compound: CCN1CCN(Cc2ccc(Nc3ncc(F)c(-c4cc(F)c5nc(C)n(C(C)C)c5c4)n3)nc2)CC1; assay: as above
LEE011/Ribociclib [5] = compound: T1, LEE011/Ribociclib; assay: GR value, 72 h; higher = faster growth (1 = untreated, <0 = killing);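 further: breast cancer and non-malignant breast epithelial lines, nine half-log doses, viable cells counted by Hoechst and LIVE/DEAD dye imaging versus time-zero plates and DMSO controls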
Flavopiridol [6] = compound: T2, Flavopiridol; assay: as above
Neratinib/HKI272 = compound: CCOc1cc2ncc(C#N)c(Nc3ccc(OCc4ccccn4)c(Cl)c3)c2cc1NC(=O)/C=C/CN(C)C [Neratinib/HKI272]; assay: as above
[7] = compound: CCc1cnn2c(NCc3ccc[n+]([O-])c3)cc(N3CCCC[C@H]3CCO)nc12; assay: as above
BSJ-03-123 = compound: CC(=O)c1c(C)c2cnc(Nc3ccc(N4CCN(CCOCCOCCOCCNC(=O)COc5cccc6c5C(=O)N(C5CCC(=O)NC5=O)C6=O)CC4)cn3)nc2n(C2CCCC2)c1=O [BSJ-03-123]; assay: as above
THZ1 = compound: CN(C)C/C=C/C(=O)Nc1ccc(C(=O)Nc2cccc(Nc3ncc(Cl)c(-c4c[nH]c5ccccc45)n3)c2)cc1 [THZ1]; assay: as above
[8] = compound: CC(=O)c1c(C)c2cnc(Nc3ccc(N4CCNCC4)cn3)nc2n(C2CCCC2)c1=O; assay: as above
[9] = compound: CCN1CCN(Cc2ccc(Nc3ncc(F)c(-c4cc(F)c5nc(C)n(C(C)C)c5c4)n3)nc2)CC1; assay: as above

Q: Which “increase in dead-cell fraction” value (LEE011/Ribociclib [1]; 0.001 µM) does the source give for CAL851 here?
A: -0.003

Q: What about the “increase in dead-cell fraction” value (LEE011/Ribociclib [1]; 0.003162 µM) of the same cell line?
A: 0.001

Q: What about the “increase in dead-cell fraction” value (LEE011/Ribociclib [1]; 0.01 µM) of the same cell line?
A: 0.0024

Q: What about the “increase in dead-cell fraction” value (LEE011/Ribociclib [1]; 0.03162 µM) of the same cell line?
A: 0

Q: And the “increase in dead-cell fraction” value (LEE011/Ribociclib [1]; 0.1 µM)?
A: -0.0008

Q: What about the “increase in dead-cell fraction” value (LEE011/Ribociclib [1]; 0.3162 µM) of the same cell line?
A: -0.0059

Q: What about the “increase in dead-cell fraction” value (LEE011/Ribociclib [1]; 1 µM) of the same cell line?
A: 0.0038

Q: And the “increase in dead-cell fraction” value (LEE011/Ribociclib [1]; 3.162 µM)?
A: 0.0003

Q: And the “increase in dead-cell fraction” value (LEE011/Ribociclib [1]; 10 µM)?
A: -0.0071

Q: What about the “increase in dead-cell fraction” value (Flavopiridol [2]; 0.0001 µM) of the same cell line?
A: -0.0044

Q: And the “increase in dead-cell fraction” value (Flavopiridol [2]; 0.0003162 µM)?
A: 0.0036

Q: And the “increase in dead-cell fraction” value (Flavopiridol [2]; 0.001 µM)?
A: 0.0039

Q: And the “increase in dead-cell fraction” value (Flavopiridol [2]; 0.003162 µM)?
A: -0.0035

Q: And the “increase in dead-cell fraction” value (Flavopiridol [2]; 0.01 µM)?
A: 0.0021

Q: And the “increase in dead-cell fraction” value (Flavopiridol [2]; 0.03162 µM)?
A: 0.001

Q: And the “increase in dead-cell fraction” value (Flavopiridol [2]; 0.1 µM)?
A: 0.0068

Q: And the “increase in dead-cell fraction” value (Flavopiridol [2]; 0.3162 µM)?
A: 0.0514

Q: And the “increase in dead-cell fraction” value (Flavopiridol [2]; 1 µM)?
A: 0.103

Q: What about the “increase in dead-cell fraction” value ([3]; 0.0003162 µM) of the same cell line?
A: 0.0002

Q: And the “increase in dead-cell fraction” value ([3]; 0.001 µM)?
A: 0.0074

Q: What about the “increase in dead-cell fraction” value ([3]; 0.003162 µM) of the same cell line?
A: -0.0015

Q: What about the “increase in dead-cell fraction” value ([3]; 0.01 µM) of the same cell line?
A: -0.0049

Q: And the “increase in dead-cell fraction” value ([3]; 0.03162 µM)?
A: -0.0041

Q: And the “increase in dead-cell fraction” value ([3]; 0.1 µM)?
A: 0.0052

Q: What about the “increase in dead-cell fraction” value ([3]; 0.3162 µM) of the same cell line?
A: -0.004

Q: And the “increase in dead-cell fraction” value ([3]; 1 µM)?
A: -0.0071

Q: What about the “increase in dead-cell fraction” value ([3]; 3.162 µM) of the same cell line?
A: -0.006

Q: And the “increase in dead-cell fraction” value ([4]; 0.001 µM)?
A: -0.0049

Q: And the “increase in dead-cell fraction” value ([4]; 0.003162 µM)?
A: -0.0095

Q: And the “increase in dead-cell fraction” value ([4]; 0.01 µM)?
A: -0.0073

Q: And the “increase in dead-cell fraction” value ([4]; 0.03162 µM)?
A: -0.0136

Q: What about the “increase in dead-cell fraction” value ([4]; 0.1 µM) of the same cell line?
A: -0.0173

Q: And the “increase in dead-cell fraction” value ([4]; 0.3162 µM)?
A: -0.0161

Q: What about the “increase in dead-cell fraction” value ([4]; 1 µM) of the same cell line?
A: 0.0209

Q: What about the “increase in dead-cell fraction” value ([4]; 3.162 µM) of the same cell line?
A: 0.211

Q: And the “increase in dead-cell fraction” value ([4]; 10 µM)?
A: 0.266

Q: And the GR value (LEE011/Ribociclib [5]; 0.001 µM)?
A: 1.09 GR

Q: What about the GR value (LEE011/Ribociclib [5]; 0.003162 µM) of the same cell line?
A: 0.939 GR

Q: And the GR value (LEE011/Ribociclib [5]; 0.01 µM)?
A: 0.859 GR

Q: What about the GR value (LEE011/Ribociclib [5]; 0.03162 µM) of the same cell line?
A: 1.1 GR

Q: What about the GR value (LEE011/Ribociclib [5]; 0.1 µM) of the same cell line?
A: 0.931 GR

Q: What about the GR value (LEE011/Ribociclib [5]; 0.3162 µM) of the same cell line?
A: 0.775 GR

Q: What about the GR value (LEE011/Ribociclib [5]; 1 µM) of the same cell line?
A: 0.874 GR

Q: What about the GR value (LEE011/Ribociclib [5]; 3.162 µM) of the same cell line?
A: 1.04 GR

Q: And the GR value (LEE011/Ribociclib [5]; 10 µM)?
A: 1.11 GR

Q: What about the GR value (Flavopiridol [6]; 0.0001 µM) of the same cell line?
A: 1.04 GR

Q: And the GR value (Flavopiridol [6]; 0.0003162 µM)?
A: 1.01 GR

Q: What about the GR value (Flavopiridol [6]; 0.001 µM) of the same cell line?
A: 0.961 GR

Q: And the GR value (Flavopiridol [6]; 0.003162 µM)?
A: 0.874 GR

Q: And the GR value (Flavopiridol [6]; 0.01 µM)?
A: 0.718 GR

Q: And the GR value (Flavopiridol [6]; 0.03162 µM)?
A: 0.906 GR

Q: And the GR value (Flavopiridol [6]; 0.1 µM)?
A: 0.823 GR

Q: What about the GR value (Flavopiridol [6]; 0.3162 µM) of the same cell line?
A: -0.005 GR

Q: And the GR value (Flavopiridol [6]; 1 µM)?
A: -0.159 GR

Q: And the GR value (Neratinib/HKI272; 0.0003162 µM)?
A: 1.04 GR

Q: And the GR value (Neratinib/HKI272; 0.001 µM)?
A: 0.993 GR

Q: What about the GR value (Neratinib/HKI272; 0.003162 µM) of the same cell line?
A: 0.881 GR

Q: What about the GR value (Neratinib/HKI272; 0.01 µM) of the same cell line?
A: 0.747 GR

Q: What about the GR value (Neratinib/HKI272; 0.03162 µM) of the same cell line?
A: 0.435 GR

Q: What about the GR value (Neratinib/HKI272; 0.1 µM) of the same cell line?
A: 0.226 GR

Q: And the GR value (Neratinib/HKI272; 0.3162 µM)?
A: 0.109 GR

Q: What about the GR value (Neratinib/HKI272; 1 µM) of the same cell line?
A: -0.0501 GR

Q: What about the GR value (Neratinib/HKI272; 3.162 µM) of the same cell line?
A: -0.322 GR

Q: What about the GR value ([7]; 0.0001 µM) of the same cell line?
A: 0.97 GR

Q: And the GR value ([7]; 0.0003162 µM)?
A: 1.08 GR

Q: And the GR value ([7]; 0.001 µM)?
A: 0.982 GR

Q: And the GR value ([7]; 0.003162 µM)?
A: 0.681 GR

Q: And the GR value ([7]; 0.01 µM)?
A: 0.0301 GR

Q: What about the GR value ([7]; 0.03162 µM) of the same cell line?
A: -0.178 GR

Q: And the GR value ([7]; 0.1 µM)?
A: -0.234 GR

Q: What about the GR value ([7]; 0.3162 µM) of the same cell line?
A: -0.213 GR

Q: What about the GR value ([7]; 1 µM) of the same cell line?
A: -0.239 GR

Q: And the GR value (BSJ-03-123; 0.001 µM)?
A: 1.15 GR

Q: What about the GR value (BSJ-03-123; 0.003162 µM) of the same cell line?
A: 0.948 GR

Q: And the GR value (BSJ-03-123; 0.01 µM)?
A: 0.849 GR

Q: What about the GR value (BSJ-03-123; 0.03162 µM) of the same cell line?
A: 0.839 GR

Q: And the GR value (BSJ-03-123; 0.1 µM)?
A: 0.601 GR

Q: What about the GR value (BSJ-03-123; 0.3162 µM) of the same cell line?
A: 0.599 GR

Q: And the GR value (BSJ-03-123; 1 µM)?
A: 0.447 GR

Q: And the GR value (BSJ-03-123; 3.162 µM)?
A: 0.209 GR

Q: And the GR value (BSJ-03-123; 10 µM)?
A: -0.238 GR

Q: And the GR value (THZ1; 0.0001 µM)?
A: 1.01 GR

Q: And the GR value (THZ1; 0.0003162 µM)?
A: 0.917 GR

Q: And the GR value (THZ1; 0.001 µM)?
A: 0.835 GR

Q: And the GR value (THZ1; 0.003162 µM)?
A: 0.727 GR

Q: What about the GR value (THZ1; 0.01 µM) of the same cell line?
A: 0.6 GR

Q: What about the GR value (THZ1; 0.03162 µM) of the same cell line?
A: 0.145 GR

Q: What about the GR value (THZ1; 0.1 µM) of the same cell line?
A: -0.146 GR

Q: And the GR value (THZ1; 0.3162 µM)?
A: -0.225 GR

Q: And the GR value (THZ1; 1 µM)?
A: -0.549 GR

Q: And the GR value ([8]; 0.0003162 µM)?
A: 1.05 GR

Q: And the GR value ([8]; 0.001 µM)?
A: 1.07 GR

Q: And the GR value ([8]; 0.003162 µM)?
A: 1.13 GR

Q: And the GR value ([8]; 0.01 µM)?
A: 1.09 GR

Q: What about the GR value ([8]; 0.03162 µM) of the same cell line?
A: 1.17 GR

Q: What about the GR value ([8]; 0.1 µM) of the same cell line?
A: 1.06 GR

Q: What about the GR value ([8]; 0.3162 µM) of the same cell line?
A: 0.993 GR

Q: What about the GR value ([8]; 1 µM) of the same cell line?
A: 1.07 GR

Q: What about the GR value ([8]; 3.162 µM) of the same cell line?
A: 1.07 GR

Q: And the GR value ([9]; 0.001 µM)?
A: 1.09 GR

Q: And the GR value ([9]; 0.003162 µM)?
A: 0.968 GR

Q: And the GR value ([9]; 0.01 µM)?
A: 1.08 GR

Q: What about the GR value ([9]; 0.03162 µM) of the same cell line?
A: 1.05 GR

Q: And the GR value ([9]; 0.1 µM)?
A: 1.12 GR

Q: What about the GR value ([9]; 0.3162 µM) of the same cell line?
A: 0.914 GR

Q: What about the GR value ([9]; 1 µM) of the same cell line?
A: 0.617 GR

Q: And the GR value ([9]; 3.162 µM)?
A: -0.0347 GR

Q: And the GR value ([9]; 10 µM)?
A: -0.233 GR
